The record followed here is publication PMC11604427 (Frontiers in Pharmacology, 2024).

Molecules are shown by their SMILES.

Assay [1] has as its target T1, Human recombinant PKMYT1 enzyme (Homo sapiens, UniProt Q99640).
T1 construct: purchased Abcam
T1 sequence (Q99640 1-499): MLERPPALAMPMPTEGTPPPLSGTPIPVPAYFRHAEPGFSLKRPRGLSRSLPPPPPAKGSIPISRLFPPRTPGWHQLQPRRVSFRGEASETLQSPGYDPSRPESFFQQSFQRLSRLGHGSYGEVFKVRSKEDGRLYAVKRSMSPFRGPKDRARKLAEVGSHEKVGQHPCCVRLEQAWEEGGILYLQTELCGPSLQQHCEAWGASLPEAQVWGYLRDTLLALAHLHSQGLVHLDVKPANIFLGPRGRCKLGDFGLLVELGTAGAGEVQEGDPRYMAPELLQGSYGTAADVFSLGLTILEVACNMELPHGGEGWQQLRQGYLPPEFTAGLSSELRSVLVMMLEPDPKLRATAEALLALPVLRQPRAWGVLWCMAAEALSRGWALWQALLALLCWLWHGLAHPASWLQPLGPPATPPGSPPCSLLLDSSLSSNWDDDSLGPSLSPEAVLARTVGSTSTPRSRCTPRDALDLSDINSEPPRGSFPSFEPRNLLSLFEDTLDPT
Put plainly: ADP-GLO enzyme inhibition assay. It counts as biochemical. The following applies: ADP-GLO method. As to the method:
The ADP-GLO™ kinase assay kit, purchased from Promega Corporation (Madison, WI, United States), included the ADP-GLO reagent, the kinase assay reagent, and ultra-pure ATP and ADP. PKMYT1 enzyme was dissolved in 5 μL of freshly prepared enzyme assay buffer containing 70 mM Hepes, 3 mM MgCl2, 3 mM MnCl2, 50 μg/mL PEG20000, 3 μM sodium orthovanadate, 1.2 mM dithiothreitol, and then injected into 384-well plates. […] The enzymatic reaction was initiated by adding 5 μL of ATP, followed by a 60-min incubation at 30°C. Subsequently, 15 μL of ADP-GLO reagent was added, and the incubation was continued for an additional 40 min at room temperature. Then, 30 μL of kinase detection reagent was introduced, and the samples were incubated for a final 30 min. Luminescence measurements were taken using an Envision plate reader (PerkinElmer). The IC50 value of each tested compound was calculated by GraphPad Prism software.

Assay [2] deals with T2, Human recombinant HDAC2 enzyme (Homo sapiens, UniProt Q92769).
T2 construct: purchased Abcam
T2 sequence (Q92769 whole entry): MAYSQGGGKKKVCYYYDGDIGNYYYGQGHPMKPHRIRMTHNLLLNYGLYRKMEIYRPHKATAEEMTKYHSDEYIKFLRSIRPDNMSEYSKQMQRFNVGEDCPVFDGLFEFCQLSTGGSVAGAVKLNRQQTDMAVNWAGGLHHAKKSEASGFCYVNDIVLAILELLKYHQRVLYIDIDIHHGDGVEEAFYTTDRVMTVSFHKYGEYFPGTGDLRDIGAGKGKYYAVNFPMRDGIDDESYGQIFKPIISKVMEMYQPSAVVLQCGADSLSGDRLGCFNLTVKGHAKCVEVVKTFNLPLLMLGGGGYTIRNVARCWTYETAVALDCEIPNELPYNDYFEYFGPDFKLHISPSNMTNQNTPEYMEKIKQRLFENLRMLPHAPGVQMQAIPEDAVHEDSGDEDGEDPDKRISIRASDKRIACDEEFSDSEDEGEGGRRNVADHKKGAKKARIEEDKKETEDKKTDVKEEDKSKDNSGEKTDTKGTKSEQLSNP
The assay can be described thus: HDAC2 fluorescence enzyme inhibition assay (Boc-Lys(acetyl)-AMC). The assay is classed as biochemical. To be noted: fluorescence signal-based method. As to the method:
Firstly, a 96-well plate was loaded with a blend comprising 10 μL of HDAC2 enzyme solution and 50 μL of the test compounds at assorted concentrations, followed by incubation at a temperature of 37°C for a duration of 5 min. Subsequently, 10 μL of the fluorescent substrate Boc-Lys (acetyl)-AMC was added and continued for 30 min. Finally, 100 μL of developer containing trypsin and TSA was injected into each well and incubated for 20 min.

Consider `CCc1nc2c(cc1CCCCCC(=O)NO)c(C(N)=O)c(N)n2-c1c(C)ccc(O)c1C` [PKHD-2], for which the concentration for half-maximal inhibition (IC50) was found to be 7.78 ± 0.91 nM in assay [1] and 4.14 ± 0.52 nM in assay [2].
For `CCCCc1nc2c(cc1CCCCCC(=O)NO)c(C(N)=O)c(N)n2-c1c(C)ccc(O)c1C` [PKHD-4], the half-maximal inhibitory concentration (IC50) in assay [1] is 13.6 ± 1.94 nM; in assay [2], 7.31 ± 1.12 nM.
Taken in the same sequence, the figures for `Cc1ccc(O)c(C)c1-n1c(N)c(C(N)=O)c2cc(CCCCCC(=O)NO)c(CCCO)nc21` [PKHD-1] were 11.1 ± 1.86 nM and 8.64 ± 1.35 nM.
With `O=C(CCCCCCC(=O)Nc1ccccc1)NO` [SAHA, Vorinostat, reference compound], the “PKMYT1 (IC50, nM)” value in assay [1] is on record as “no inhibition”.
With `C=CCc1nc2c(cc1CCCCCC(=O)NO)c(C(N)=O)c(N)n2-c1c(C)ccc(O)c1C` [PKHD-3], the figures for the half-inhibitory concentration (IC50) in assay [1] and in assay [2] were 9.26 ± 1.07 nM and 5.47 ± 0.66 nM, respectively.
